Results from patent US20030013650A1, “VR-OAC, an osomotically activated channel protein, nucleic acids encoding it, and uses thereof” (The Rockefeller University, priority 2000, published 2003).
Entries after “also recorded” stand apart in the source; their conditions may differ.

Tests used:
VR-OAC [1] = test: Whole-cell and patch recordings from VR-OAC-transfected CHO-K1 cells; type: cell-based, chicken or rat; design: effect on VR-OAC-transfected cells (whole-cell current) / effect on whole-cell current: dose or concentration left out as unconfirmed; conditions: for VR-OAC currents on stimulation with hypotonic solution: after incubation in 10 μM thapsigargin and 20 μM SKF 96365 (combined)
Method: Electrophysiological characterization of VR-OAC was performed at room temperature on CHO-K1 cell lines stably or transiently transfected with one of four expression vectors, pcDNA3.1 (Invitrogen) with inserts bearing chicken or rat VR-OAC, eGFP-OAC, or eGFP-ΔOAC. These cells were selected because untransfected HEK 293 cells responded to hypotonic stress and Xenopus laevis oocytes are known to respond to membrane stretch (Yang and Sachs, 1989). Cells plated on glass-bottom Petri dishes were observed through a 40× water-immersion objective lens on an inverted microscope (Aviovert 100 M, Carl Zeiss) equipped with Nomarski optics. We recorded whole-cell and patch currents with a voltage-clamp amplifier (EPC-7, List-Electronic, Darmstadt-Eberstadt, Germany). Voltage stimuli were generated and responses recorded with a computer (P6400 GX1, Dell) running LabVIEW 5.0 software (National Instruments, Austin, Tex.). Voltage and current responses were low-pass filtered at 2 kHz with an eight-pole Bessel filter and sampled at 5 kHz.
Tight-seal pipettes were bent to permit an orthogonal approach to a cell's surface and heat-polished to give resistances of 3-5 MΩ. Internal solutions typically contained 117 mM NaCl, 5 mM HEPES, 1 mM EDTA, and mannitol to achieve isotonicity. EDTA was omitted in the pipette solution during experiments in which the bath solution also lacked EDTA. Pipette and cell capacitance were largely compensated; series resistance compensation ranged from 10% to 60%. Ground reference was provided by an Ag—AgCl electrode through a 150 mM KC1 agar bridge.
A fluid-jet stimulus was delivered by applying a pressure pulse of about 3 kPa to the rear of a glass pipette with a tip diameter of 5-10 μm. Filled with saline solution identical to that in the recording chamber, the pipette's tip was oriented perpendicular to the bottom of the chamber and placed roughly 10 μm above the target cell. The onset and termination of the jet were regulated by a solenoid valve (Picospritzer II, General Valve Corporation, Fairfield, N.J.) under computer control. During whole-cell recording, cells were maintained in isotonic or slightly hypertonic solutions. Mechanical stimulation was accomplished by perfusion of hypotonic solutions. […] Isotonic and hypertonic solutions were prepared by supplementing the standard hypotonic solution with mannitol to respectively 295 mmol kg−1 and 340 mmol kg−1.
In studies of the effects of Ca2+ and Gd3+ on whole-cell currents, hypotonic test solutions included respectively 2 mM CaCl2 or […] GdCl3. Because carboxylic-acid Ca2+ chelators are known to compromise the capacity of GdC13 to block mechanosensitive channels (Caldwell et al., 1998), EDTA was excluded from the latter medium and the pipette solution. […]

VR-OAC [2] = test: Ca2+ imaging (fluo-4) of CHO cells transfected with VR-OAC or variants; type: cell-based, rat and chicken; conditions: for fluo-4 fluorescence upon exposure to hypotonic medium: stores depleted with 10 μM thapsigargin and potentiation channels blocked with 20 μM SKF 96365 (combined); for response of VR-OAC-transfected cells to ligand (fluo-4 Ca2+ imaging): chicken and rat VR-OAC-transfected cells, resiniferatoxin 0.2 μM and 5 μM, anandamide 5 μM and 25 μM
Description: (§1) To confirm that VR-OAC constitutes an ion channel and to determine the stimulus that gates it, we expressed the rat and chicken proteins in stably transfected Chinese hamster ovary (CHO) cells. Untransfected CHO cells and a line stably transfected with a VR1-expressing plasmid served as controls. We loaded VR-OAC-expressing cells with the Ca^2+ indicator fluo-4 AM and used conventional and confocal icroscopy to monitor changes in fluorescence, which reflected alterations in the ntracellular Ca^2+ concentration.
(§2) The complete cDNAs of rat VR-OAC, chicken VR-OAC, and rat VR1 were subcloned into the eukaryotic expression vector pcDNA3.1 (Invitrogen, Carlsbad, Calif.). CHO-K1 cells (ATCC, Manassas, Va.) were transfected with these vectors and selected with G418 (Life Technology, Gaithersburg, Md.). Stable clones that expressed the mRNAs were identified by Northern blot analysis and, for VR1, by response to ligand.
(§3) For Ca2+ imaging, cells were loaded for 30 min at room temperature in […] fluo-4 AM ester (Molecular Probes, Eugene, Oreg.) in isoosmotic Hille's saline solution (130 mM Na^+, 2.5 mM K^+, 2 mM Ca2+, 1 mM Mg2+, 138.5 mM Cl−, 20 mM D-glucose, and 10 mM HEPES at pH 7.3; Babcock et al., 1997) containing 2 mM probenecid. The cells were then washed and incubated for 15 min at 30° C. to promote deacetylation of internalized fluo-4 AM ester.
(§4) Confocal analysis was performed with an MRC-1024ES system (Bio-Rad, Hercules, Calif.) mounted on an inverted microscope (Zeiss Axiovert 135TV, Carl Zeiss, Jena, Germany). Confocal image series were collected using Lasersharp software (BioRad) running on a Poweredge 2300 computer (Dell Computer, Round Rock, Tex.). Images were also recorded with a cooled digital camera (Micromax, Princeton Instruments Inc., Princeton, N.J.) atop a Zeiss Axioplan microscope. These images were analyzed using IPLab software (Scanalytics Inc., Fairfax, Va.). Analysis of single-frame or single-cell integrated signal density was performed on Macintosh computers running NIH Image software (version 1.61; O'Neill et al., 1989).
(§5) Solutions with different osmotic strengths were created by adding water or mannitol to Hille's saline solution. Unless otherwise noted, the Ca2+ concentration of all solutions was held constant at 2 mM. The resultant osmolalities were verified with a vapor-pressure osmometer (Vapro 5520, Wescor Inc., Logan, Utah). The test solutions included a graded series of hypotonic solutions (with 220 mmol kg-1 the lowest osmolality), a hypertonic solution (330 mmol kg-1), isotonic solutions at 295 mmol kg-1 with graded concentrations of Na+ (with 50 mM the lowest concentration), and hypotonic solutions containing 100 μM, 250 μM, and 500 μM GdCl3. Ligands used for stimulation were resiniferatoxin (Sigma Chemicals, St. Louis, Mo.) at 0.2 μM and 5 μM and anandamide (Cayman Chemical, Ann Arbor, Mich.) at 5 μM and 25 μM. To test whether VR-OAC is directly gated by increases in temperature, we exposed dishes containing fluo-4-loaded cells to temperatures ranging from room temperature to 30° C., 37° C., 40° C., 45° C., 50° C., and 55° C. Images were acquired during the thermal stimulus series at intervals of 60 s for up to 10 min after the start of heating. A series of calibration experiments confirmed that this interval ensured proper thermal equilibration. A similar procedure was used to test the response to hypotonicity at various temperatures.

rat VR1 = molecular target: T1, rat VR1 (Rattus norvegicus, UniProt O35433); test: Ca2+ imaging (fluo-4) of control CHO cells expressing rat VR1; type: cell-based; conditions: control CHO line expressing rat VR1; 200 nM resiniferatoxin (FIG. 10A legend)
T1 construct: The complete cDNAs of rat VR-OAC, chicken VR-OAC, and rat VR1 were subcloned into the eukaryotic expression vector pcDNA3.1; expressed in transfected cells
Description: as §1
as §2, with “ligand. […]” for “ligand.”
Confocal analysis was performed with an MRC-1024ES system (Bio-Rad, Hercules, Calif.) mounted on an inverted microscope (Zeiss Axiovert 135TV, Carl Zeiss, Jena, Germany). […] Images were also recorded with a cooled digital camera (Micromax, Princeton Instruments Inc., Princeton, N.J.) atop a Zeiss Axioplan microscope. These images were analyzed using IPLab software (Scanalytics Inc., Fairfax, Va.). […]

C. elegans mutant osm-9 = test: Transgenic rescue of C. elegans mutant osm-9 (osmotic avoidance, nose touch, odorant avoidance); type: in vivo, Caenorhabditis elegans; conditions: for rescue of lack of osmotic avoidance and lack of response to nose touch: expressed in ASH neurons (sra6 promotor) of osm-9 worms
Method: The coding region of the rat VR-OAC cDNA was cloned into the C. elegans expression vector pPD49.26 that contained the sra6 promotor. This promotor directs expression in the ASH and ASI neurons. Purified DNA was injected into the gonad of hermaphroditic worms, strain N2, together with the marker gene elt-2/green fluorescent protein (GFP) which directs expression of GFP in C. elegans intestinal cells. Transgenic offspring could be identified by GFP fluorescence, and VR-OAC transgenic lines of worms were generated. Likewise, several transgenic lines of worms were established and maintained on an osm-9 (ky-10 allele) genetic background. In these worms, an osmotic avoidance in response to hyperosmotic stimuli was clearly present, as was sensitivity to nose touch (FIGS. 15A and 15B). The avoidance reactions were assayed on single animals as previously described^34. Odorant avoidance in response to octanone was not present. […] In order to confirm that the observed rescue is mediated by the ASH neuron, both ASH neurons were laser ablated in osm-9/VR-OAC transgenic (tg) worms. This procedure completely abolished rescue (FIGS. 15A and 15B). In order to visualize subcellular localization of the VR-OACtg in the ASH neuron, GFP was tagged to the C-terminus of VR-OAC. The tagged protein could be localized to the cilia of the ASH neuron in the worm nose where fluorescence was stronger than in any other part of this neuron. Rescue was not impaired in VR-OAC/GFPtg osm-9 worms (FIGS. 15A and 15B).
In order to understand better the specificity of the observed rescue, VR-OACtg worms were crossed to C. elegans mutants which genetically define the alternate mechanosensory pathway. VR-OACtg worms of the following mutant lines were generated: ocr-2, odr-3, glr-1, osm-10 and double-mutants of the former with osm-9. These lines were tested for osmotic avoidance, nose touch and odorant avoidance. […] In another control experiment addressing the specificity of the observed rescue, we expressed rat VR1 under the control of the sra6 promotor in ASH neurons of wild type and osm-9 worms. No rescue was observed. However, in osm-9 as well as in wild type worms tg for VR1 there was a strong avoidance response to vanilloids which was absent in non-tg worms.
Next, we wanted to use the transgenic rescue of osm-9 by VR-OAC as an in-vivo model in order to better understand structure-function relationships of VR-OAC. Gross deletions were constructed lacking either the N-terminal intracellular domain (aminoacid [AA] 1-410 of VR-OAC), the C-terminal intracellular domain (AA 741-781 of VR-OAC) or both. Three lines of worms were established for each of the gross deletions. The line with the most pronounced rescue as an indication of highest expression level of tg was investigated more in depth. […] The N-terminus and the C-terminus thus appear dispensable for the response to osmotic and mechanical stimuli, and, most likely, for proper intracellular transport in the ASH neuron. In addition to these gross deletions, we wanted to learn more about the structure-function relationship of strategically positioned single amino acid exchanges in the pore-loop domain of VR-OAC. As for the gross deletions, three lines of worms were generated for each point mutation. […]

VR-OAC [3] = molecular target: T2, VR-OAC (Rattus norvegicus, UniProt Q9ERZ8, M680K); test: Ca2+ imaging (fluo-4) of CHO cells transfected with VR-OAC or variants; type: cell-based, rat and chicken; conditions: tissue culture cells
T2 construct: The complete cDNAs of rat VR-OAC, chicken VR-OAC, and rat VR1 were subcloned into the eukaryotic expression vector pcDNA3.1; expressed in transfected cells; host or cells: CHO-K1 (stably or transiently transfected, pcDNA3.1)
Description: as §1, §2, §3, §4, §5

T1 sequence (O35433 whole entry): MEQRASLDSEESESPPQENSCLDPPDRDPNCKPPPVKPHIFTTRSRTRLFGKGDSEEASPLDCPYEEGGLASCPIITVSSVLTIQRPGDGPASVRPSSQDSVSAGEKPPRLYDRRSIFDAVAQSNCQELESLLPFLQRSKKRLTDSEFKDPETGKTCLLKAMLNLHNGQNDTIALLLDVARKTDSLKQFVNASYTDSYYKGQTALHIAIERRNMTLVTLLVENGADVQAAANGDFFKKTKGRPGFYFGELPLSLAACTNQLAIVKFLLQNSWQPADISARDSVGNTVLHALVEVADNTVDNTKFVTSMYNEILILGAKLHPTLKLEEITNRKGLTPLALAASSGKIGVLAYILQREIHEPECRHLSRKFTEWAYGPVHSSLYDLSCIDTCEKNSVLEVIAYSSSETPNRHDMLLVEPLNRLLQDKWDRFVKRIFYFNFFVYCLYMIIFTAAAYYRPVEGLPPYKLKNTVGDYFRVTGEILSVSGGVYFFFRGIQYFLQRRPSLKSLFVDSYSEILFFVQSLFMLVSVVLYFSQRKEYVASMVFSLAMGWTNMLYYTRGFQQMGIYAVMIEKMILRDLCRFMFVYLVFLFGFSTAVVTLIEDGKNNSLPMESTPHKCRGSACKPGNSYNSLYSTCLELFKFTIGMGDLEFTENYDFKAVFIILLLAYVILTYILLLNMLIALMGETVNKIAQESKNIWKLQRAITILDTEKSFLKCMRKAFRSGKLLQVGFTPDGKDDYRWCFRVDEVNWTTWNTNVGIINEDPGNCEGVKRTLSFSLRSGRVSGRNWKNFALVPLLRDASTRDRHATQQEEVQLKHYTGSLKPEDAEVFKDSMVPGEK
T2 sequence (Q9ERZ8 whole entry M680K): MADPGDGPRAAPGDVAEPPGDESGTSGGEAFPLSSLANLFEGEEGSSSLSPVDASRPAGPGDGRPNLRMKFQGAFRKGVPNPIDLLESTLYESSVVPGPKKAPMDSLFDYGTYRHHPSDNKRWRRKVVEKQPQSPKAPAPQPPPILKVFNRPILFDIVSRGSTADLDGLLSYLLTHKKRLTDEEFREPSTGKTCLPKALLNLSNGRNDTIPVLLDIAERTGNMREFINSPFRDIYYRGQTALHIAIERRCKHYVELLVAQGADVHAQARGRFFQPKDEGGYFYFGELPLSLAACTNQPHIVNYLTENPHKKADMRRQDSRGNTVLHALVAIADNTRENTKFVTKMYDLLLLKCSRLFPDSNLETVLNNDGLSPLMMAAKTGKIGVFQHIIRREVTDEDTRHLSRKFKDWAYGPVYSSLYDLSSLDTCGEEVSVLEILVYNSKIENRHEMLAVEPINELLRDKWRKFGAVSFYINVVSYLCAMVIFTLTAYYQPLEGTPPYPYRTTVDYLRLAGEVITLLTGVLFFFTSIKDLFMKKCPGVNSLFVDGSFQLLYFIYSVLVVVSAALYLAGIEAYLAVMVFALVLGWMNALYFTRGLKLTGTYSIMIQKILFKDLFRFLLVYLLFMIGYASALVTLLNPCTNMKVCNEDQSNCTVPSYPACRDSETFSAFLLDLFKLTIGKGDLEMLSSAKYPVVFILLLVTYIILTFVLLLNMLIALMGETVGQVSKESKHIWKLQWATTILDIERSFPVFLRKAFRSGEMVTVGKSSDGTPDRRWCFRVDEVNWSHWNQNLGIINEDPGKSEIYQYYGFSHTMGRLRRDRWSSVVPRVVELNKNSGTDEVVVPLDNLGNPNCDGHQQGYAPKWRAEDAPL

**Q.** What does the source list for `[Gd+3]` [Gd^3+, Gadolinium ion]?
**A.** effect on VR-OAC-transfected cells (whole-cell current) (VR-OAC [1]; Gd^3+ extracellular, within the first few minutes): resembled that of Ca^2+; effect on whole-cell current (VR-OAC [1]; Gd^3+, more protracted exposure): irreversibly abolished the whole-cell current

**Q.** Which results are given for `COc1ccc(CCCOC(Cn2ccnc2)c2ccc(OC)cc2)cc1` (stereo not drawn) [SKF 96365]?
**A.** VR-OAC currents on stimulation with hypotonic solution (VR-OAC [1]): displayed characteristic VR-OAC currents; fluo-4 fluorescence upon exposure to hypotonic medium (VR-OAC [2]): does not increase

**Q.** With `CCCCC/C=C\C/C=C\C/C=C\C/C=C\CCCC(=O)NCCO` [anandamide] as the molecule, how does the “response of VR-OAC-transfected cells to ligand (fluo-4 Ca2+ imaging)” value (VR-OAC [2]) read?
**A.** responded neither

**Q.** How did the “intracellular Ca^2+ concentration / Ca^2+ influx (fluo-4 fluorescence)” value (rat VR1) turn out when `C=C(C)[C@]12C[C@@H](C)[C@@]34O[C@](Cc5ccccc5)(O[C@@H]1[C@@H]3C=C(COC(=O)Cc1ccc(O)c(OC)c1)C[C@]1(O)C(=O)C(C)=C[C@@H]41)O2` [resiniferatoxin] was run?
**A.** strong Ca^2+ influx; also recorded: increases the intracellular Ca^2+ concentration

**Q.** What about the “response of VR-OAC-transfected cells to ligand (fluo-4 Ca2+ imaging)” value (VR-OAC [2]) of the same molecule?
**A.** responded neither

**Q.** Which “VR-OAC currents on stimulation with hypotonic solution” value (VR-OAC [1]) does the source give for `C/C=C(/C)C(=O)O[C@H]1C(C)=C2[C@H]([C@@H]1OC(=O)CCCCCCC)[C@@](C)(OC(C)=O)C[C@H](OC(=O)CCC)[C@@]1(O)[C@H]2OC(=O)[C@@]1(C)O` [thapsigargin] here?
**A.** displayed characteristic VR-OAC currents

**Q.** And the “fluo-4 fluorescence upon exposure to hypotonic medium” value (VR-OAC [2])?
**A.** does not increase

**Q.** Which results are given for “M680K: VR-OAC mutation of Lysine for Methionine at amino acid 680”?
**A.** rescue of lack of osmotic avoidance and lack of response to nose touch (C. elegans mutant osm-9): strikingly reduce rescue; function in tissue culture cells (VR-OAC [3]): totally lacked function

**Q.** Which “rescue of lack of osmotic avoidance and lack of response to nose touch” value (C. elegans mutant osm-9) does the source give for “rat VR1: rat vanilloid receptor 1, expressed as specificity control” here?
**A.** No rescue

**Q.** Which results are given for “rat VR-OAC: rat orthologue of VR-OAC, 871 amino acids”?
**A.** rescue of lack of osmotic avoidance and lack of response to nose touch (C. elegans mutant osm-9): partial rescue; rescue of lack of odorant avoidance (C. elegans mutant osm-9; osm-9 worms, octanone): no rescue

B1: VROAC without both its N-terminus and C-terminus: VR-OAC deletion of both N-terminal (AA 1-410) and C-terminal (AA 741-781) regions (protein, UniProt Q9HBA0 411-740, looked up, fragment)
chain: YGPVYSSLYDLSSLDTCGEEASVLEILVYNSKIENRHEMLAVEPINELLRDKWRKFGAVSFYINVVSYLCAMVIFTLTAYYQPLEGTPPYPYRTTVDYLRLAGEVITLFTGVLFFFTNIKDLFMKKCPGVNSLFIDGSFQLLYFIYSVLVIVSAALYLAGIEAYLAVMVFALVLGWMNALYFTRGLKLTGTYSIMIQKILFKDLFRFLLVYLLFMIGYASALVSLLNPCANMKVCNEDQTNCTVPTYPSCRDSETFSTFLLDLFKLTIGMGDLEMLSSTKYPVVFIILLVTYIILTFVLLLNMLIALMGETVGQVSKESKHIWKLQWATT
**Q.** Which “rescue of lack of osmotic avoidance and lack of response to nose touch” value (C. elegans mutant osm-9) does the source give for B1 here?
**A.** still rescues
